Experimental data: patent publication US20070149580A1, “USE OF PEROXISOME PROLIFERATOR ACTIVATED RECEPTOR DELTA AGONISTS FOR THE TREATMENT OF MS AND OTHER DEMYELINATING DISEASES” (AVENTIS PHARMACEUTICALS INC., priority 2004, published 2007)

Columns and labels:
[1] = system: PPAR delta pathway in cultured rat oligodendrocytes; assay: Quantitative PCR of PPAR delta pathway transcriptional markers (ADRP mRNA) in cultured rat oligodendrocytes; assay type: cell-based; details: FIG. 4B
From the text: • 1. Primary rat oligodendrocyte progenitor cells are obtained from the neocortex of newborn (postnatal days 2-3) rats or mice and are enriched, after removal of microglia, by mechanical separation from the astrocytic monolayer using a modification of the technique originally described by McCarthy and de Vellis (1980). • 2. Remove the meninges from neonatal rat brain and mechanically dissociate tissue. Plate cells on T75 flasks and feed cells with DMEM/F12+10% FBS. • 3. Collect oligodendrocytes growing on the astrocyte bed layer by shaking-off method fourteen days after the original prep date. Centrifuge the suspension and resuspend the cell pellet in serum free media (SFM; DMEM combined with 25 μg/ml transferring, 30 nM triiodothyronine, 20 nM hydrocortisone, 20 nM progesterone, 10 nM biotin, 1× trace elements, 30 nM selenium, 1 μg/ml putrescine, 0.1% BSA, 5 U/ml PenStrep, 10 μg/ml insulin) supplemented with the following growth factors: Platelet derived growth factor-AA (PDGF) and fibroblast growth factor-2 (FGF). • 4. Plate the cells on PDL-coated dishes and incubate at 37° C. with 6-7% CO2. • 5. Media components are replaced every 48 hr to keep the cells in a progenitor state. Progenitor Cell Passaging to Increase Cell Numbers for Screening Assays: • 1. […]
• 1. […] PPAR delta pathway member transcript expression is quantitated using Sybr Green PCR Master Mix. • 4. […]

[2] = target: T1, Human PPAR gamma (Homo sapiens, UniProt P37231); assay: Cellular PPAR gamma luciferase reporter assay; assay type: cell-based
T1 construct: expressed in transfected cells
T1 sequence (P37231 1-505): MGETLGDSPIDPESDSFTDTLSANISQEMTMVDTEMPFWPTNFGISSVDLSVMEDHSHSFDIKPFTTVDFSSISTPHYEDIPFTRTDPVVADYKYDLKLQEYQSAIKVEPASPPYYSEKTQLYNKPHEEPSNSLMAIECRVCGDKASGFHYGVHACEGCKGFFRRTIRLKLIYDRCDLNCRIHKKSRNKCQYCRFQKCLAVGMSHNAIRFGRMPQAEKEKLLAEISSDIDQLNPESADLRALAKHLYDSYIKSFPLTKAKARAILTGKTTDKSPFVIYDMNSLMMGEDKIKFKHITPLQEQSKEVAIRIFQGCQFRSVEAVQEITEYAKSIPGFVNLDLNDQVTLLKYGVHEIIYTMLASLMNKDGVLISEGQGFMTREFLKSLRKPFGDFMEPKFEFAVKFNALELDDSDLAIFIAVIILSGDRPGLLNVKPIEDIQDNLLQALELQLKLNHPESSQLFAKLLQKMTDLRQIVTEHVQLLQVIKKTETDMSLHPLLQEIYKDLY
Experimental: Cell Based PPAR Gamma Assay Protocol
To perform cell based assays a luciferase assay is performed in 96 well plates as follows:
Dilution steps and addition of diluted compounds is done using a Beckman Biomek 2000 or Beckman FX robot.
• Aspirate medium from cells • Freeze plates at −20° C. (optional) • Thaw plates for 30 min (if necessary) • Add 50 μl Bright-Glo-Luciferase Assay Reagent (Promega, Cat. No. E2650) • Incubate for 10 min in the dark • Measure luminescence 2 sec per well (Wallac Microbeta) Data Analysis: […]

[3] = target: T2, human PPAR delta (Homo sapiens, UniProt Q03181); assay: cell-based
T2 sequence (Q03181 139-441): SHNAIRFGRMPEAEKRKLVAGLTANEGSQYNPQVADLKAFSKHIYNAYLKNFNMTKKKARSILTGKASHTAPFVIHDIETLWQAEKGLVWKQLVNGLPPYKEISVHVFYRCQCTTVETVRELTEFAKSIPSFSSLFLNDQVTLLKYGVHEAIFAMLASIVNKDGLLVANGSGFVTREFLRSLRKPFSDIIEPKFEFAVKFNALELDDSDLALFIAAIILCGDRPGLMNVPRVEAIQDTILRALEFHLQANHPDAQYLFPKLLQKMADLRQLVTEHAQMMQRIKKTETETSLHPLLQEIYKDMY

| SMILES | ADRP mRNA [1] | EC50 [2] [nM] | EC50 [3] [nM] |
| --- | --- | --- | --- |
| Cc1cc(SCc2sc(-c3ccc(C(F)(F)F)cc3)nc2C)ccc1OCC(=O)O [Compound 1] | upregulated | – | – |
| CCCc1c(OCCCOc2ccc(OCC(=O)O)cc2)ccc(C(C)=O)c1O [Compound 2] | – | 1100 | 39 |
